Experimental data from patent US20240254119A1 (THIRD HARMONIC BIO, INC., priority 2022, published 2024).

Target: T1, wtKIT (Homo sapiens, UniProt P10721)
T1 construct: 1888289AM in the reaction mixtures
Assay: HTRF biochemical assay, wtKIT (phosphorylation of a peptide substrate)
Settings: Table 4
How it was run: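 wtKIT (5.0 nM) phosphorylating 1 µM FAM-labelled peptide with 400 µM ATP and 10 mM MnCl2 in 100 mM HEPES pH 7.5, 1% DMSO, 3 h at 25 °C. EDTA quench; phosphopeptide detected with anti-phosphotyrosine antibody by HTRF. Enzyme titrated for 10-20% substrate conversion.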

T1 sequence (P10721 26-976): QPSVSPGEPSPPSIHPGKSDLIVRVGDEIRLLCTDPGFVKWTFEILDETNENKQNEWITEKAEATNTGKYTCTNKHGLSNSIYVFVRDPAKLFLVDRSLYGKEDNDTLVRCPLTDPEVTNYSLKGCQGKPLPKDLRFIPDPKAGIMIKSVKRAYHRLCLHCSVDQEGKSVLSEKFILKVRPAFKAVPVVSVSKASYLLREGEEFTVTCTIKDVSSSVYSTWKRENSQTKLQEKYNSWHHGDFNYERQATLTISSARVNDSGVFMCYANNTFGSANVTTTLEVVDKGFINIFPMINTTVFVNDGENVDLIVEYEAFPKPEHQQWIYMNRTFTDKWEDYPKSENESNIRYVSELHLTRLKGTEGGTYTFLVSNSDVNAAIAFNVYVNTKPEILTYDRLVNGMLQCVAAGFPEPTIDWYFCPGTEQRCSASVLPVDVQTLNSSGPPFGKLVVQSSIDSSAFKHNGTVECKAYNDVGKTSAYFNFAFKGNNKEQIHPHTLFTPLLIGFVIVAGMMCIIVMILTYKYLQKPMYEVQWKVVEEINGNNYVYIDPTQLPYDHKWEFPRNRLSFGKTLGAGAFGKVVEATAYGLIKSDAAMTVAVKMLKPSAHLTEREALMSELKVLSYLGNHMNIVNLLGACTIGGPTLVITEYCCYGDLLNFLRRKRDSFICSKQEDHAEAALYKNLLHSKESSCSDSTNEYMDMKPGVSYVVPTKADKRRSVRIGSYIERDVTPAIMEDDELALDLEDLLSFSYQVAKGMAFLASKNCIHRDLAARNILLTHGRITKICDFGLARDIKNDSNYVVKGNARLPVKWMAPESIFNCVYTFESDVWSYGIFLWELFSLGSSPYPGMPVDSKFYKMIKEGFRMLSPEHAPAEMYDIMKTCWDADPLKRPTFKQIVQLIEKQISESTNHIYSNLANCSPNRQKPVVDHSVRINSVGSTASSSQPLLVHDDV

Row | SMILES | IC50 [nM]
1 | Cc1ccc(-c2noc(C3CC4(C3)CC(F)(F)C4)n2)cc1NC(=O)c1cnc2ccccn12 [Compound I-266] | ≤ 50
2 | Cc1ccc(-c2noc([C@@H]3CCCO3)n2)cc1NC(=O)c1cnc2ccccn12 [Compound I-396] | ≤ 50
3 | Cc1ccc(-c2noc(C3CC(O)C3)n2)cc1NC(=O)c1cnn2cc(-c3ccn(C)n3)ccc12 (stereo not drawn) [Compound I-652] | ≤ 50
4 | Cc1nc(-c2ccc(F)c(NC(=O)c3cnn4cc(-c5ccn(C)n5)ccc34)c2)no1 [Compound I-657] | ≤ 50
5 | COCc1ccn2c(C(=O)Nc3cc(-c4noc(C)n4)ccc3F)cnc2c1 [Compound I-658] | 500 to 5000
6 | Cc1nc(-c2ccc(C)c(NC(=O)c3cnc4cc(OCCCN(C(=O)OC(C)(C)C)C5COC5)ccn34)c2)no1 [Compound I-660] | ≤ 50
7 | COCc1ccn2c(C(=O)Nc3cc(-c4noc(C(F)(F)F)n4)ccc3C)cnc2c1 [Compound I-664] | 50 to 500

Target: T2, CSF-1R (Homo sapiens, UniProt P07333)
T2 construct: purchased Invitrogen PV3249 (lot 662393N)
T2 sequence (P07333 20-972): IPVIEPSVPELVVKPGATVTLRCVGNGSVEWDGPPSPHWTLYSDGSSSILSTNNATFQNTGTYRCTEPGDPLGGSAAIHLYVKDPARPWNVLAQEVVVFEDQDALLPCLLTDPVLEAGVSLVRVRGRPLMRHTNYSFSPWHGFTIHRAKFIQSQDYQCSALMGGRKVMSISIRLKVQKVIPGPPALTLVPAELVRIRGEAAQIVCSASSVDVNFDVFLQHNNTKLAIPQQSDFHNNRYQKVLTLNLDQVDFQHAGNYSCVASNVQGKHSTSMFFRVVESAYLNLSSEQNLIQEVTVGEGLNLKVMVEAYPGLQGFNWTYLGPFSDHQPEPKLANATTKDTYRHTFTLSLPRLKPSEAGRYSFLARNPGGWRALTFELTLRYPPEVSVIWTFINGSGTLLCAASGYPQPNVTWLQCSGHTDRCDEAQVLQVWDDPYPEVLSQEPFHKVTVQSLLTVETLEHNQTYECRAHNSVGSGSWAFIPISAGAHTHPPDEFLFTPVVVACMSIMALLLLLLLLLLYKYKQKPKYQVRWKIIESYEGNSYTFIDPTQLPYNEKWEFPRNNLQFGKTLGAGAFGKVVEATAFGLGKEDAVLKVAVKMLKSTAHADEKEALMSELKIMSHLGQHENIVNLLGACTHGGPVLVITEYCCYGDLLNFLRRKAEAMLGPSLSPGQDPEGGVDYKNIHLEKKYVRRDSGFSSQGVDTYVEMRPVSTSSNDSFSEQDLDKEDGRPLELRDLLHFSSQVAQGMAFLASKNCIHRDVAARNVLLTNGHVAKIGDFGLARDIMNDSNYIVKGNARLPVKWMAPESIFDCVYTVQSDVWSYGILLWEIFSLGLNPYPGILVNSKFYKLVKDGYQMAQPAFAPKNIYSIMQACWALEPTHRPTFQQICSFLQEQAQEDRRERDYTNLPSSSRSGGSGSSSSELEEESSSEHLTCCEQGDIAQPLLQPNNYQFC
Assay: HTRF biochemical assay, CSF-1R
Settings: Table 4
Protocol: (§1) Exemplary compounds were tested for ability to inhibit the phosphorylation of a peptide substrate by the tyrosine kinase wt KIT, PDGFRα, or CSF-1R. Assay procedures and results are described below.
(§2) Enzyme, substrate, and cofactors (ATP and Mn^2+) are combined in a well of a microtiter plate and incubated for 3 hours at 25° C. At the end of the incubation, the reaction is quenched by the addition of an EDTA-containing buffer.
(§3) The substrate used in the CSF-1R and PDGFRα assay is FAM-[…]-CONH2 (FAM is carboxyfluorescein). Peptide should be >95% purity. The substrate for the KIT assay is FAM-[…]-NH2.
(§4) • 1. To a well of a 384-wellplate add 5 μL of 2× enzyme buffer (or control). • 2. Add 100 nL of 100× compound. Enzyme and compound may be pre-incubated at this time if desired. • 3. Add 5 μL of 2× substrate buffer. • 4. Incubate plate at 25° C. for 3 hours. • 5. Add 10 uL of anti-phosphotyrosine antibody buffer. • 6. Read plate in BioTek Synergy Reader. Reaction Conditions for wtKIT Assay

Row | SMILES | IC50 [nM]
8 | Cc1ccc(-c2noc([C@@H]3CCCO3)n2)cc1NC(=O)c1cnc2ccccn12 [Compound I-396] | 50 to 500
9 | Cc1ccc(-c2noc(C3CC(O)C3)n2)cc1NC(=O)c1cnn2cc(-c3ccn(C)n3)ccc12 (stereo not drawn) [Compound I-652] | ≤ 50
10 | Cc1nc(-c2ccc(F)c(NC(=O)c3cnn4cc(-c5ccn(C)n5)ccc34)c2)no1 [Compound I-657] | 50 to 500
11 | COCc1ccn2c(C(=O)Nc3cc(-c4noc(C)n4)ccc3F)cnc2c1 [Compound I-658] | 500 to 5000
12 | Cc1nc(-c2ccc(C)c(NC(=O)c3cnc4cc(OCCCN(C(=O)OC(C)(C)C)C5COC5)ccn34)c2)no1 [Compound I-660] | 50 to 500
13 | COCc1ccn2c(C(=O)Nc3cc(-c4noc(C(F)(F)F)n4)ccc3C)cnc2c1 [Compound I-664] | 50 to 500

Target: T3, PDGFRα (Homo sapiens, UniProt P16234)
T3 construct: purchased Millipore 14-467 (lot 26321_ACTI)
T3 sequence (P16234 24-1089): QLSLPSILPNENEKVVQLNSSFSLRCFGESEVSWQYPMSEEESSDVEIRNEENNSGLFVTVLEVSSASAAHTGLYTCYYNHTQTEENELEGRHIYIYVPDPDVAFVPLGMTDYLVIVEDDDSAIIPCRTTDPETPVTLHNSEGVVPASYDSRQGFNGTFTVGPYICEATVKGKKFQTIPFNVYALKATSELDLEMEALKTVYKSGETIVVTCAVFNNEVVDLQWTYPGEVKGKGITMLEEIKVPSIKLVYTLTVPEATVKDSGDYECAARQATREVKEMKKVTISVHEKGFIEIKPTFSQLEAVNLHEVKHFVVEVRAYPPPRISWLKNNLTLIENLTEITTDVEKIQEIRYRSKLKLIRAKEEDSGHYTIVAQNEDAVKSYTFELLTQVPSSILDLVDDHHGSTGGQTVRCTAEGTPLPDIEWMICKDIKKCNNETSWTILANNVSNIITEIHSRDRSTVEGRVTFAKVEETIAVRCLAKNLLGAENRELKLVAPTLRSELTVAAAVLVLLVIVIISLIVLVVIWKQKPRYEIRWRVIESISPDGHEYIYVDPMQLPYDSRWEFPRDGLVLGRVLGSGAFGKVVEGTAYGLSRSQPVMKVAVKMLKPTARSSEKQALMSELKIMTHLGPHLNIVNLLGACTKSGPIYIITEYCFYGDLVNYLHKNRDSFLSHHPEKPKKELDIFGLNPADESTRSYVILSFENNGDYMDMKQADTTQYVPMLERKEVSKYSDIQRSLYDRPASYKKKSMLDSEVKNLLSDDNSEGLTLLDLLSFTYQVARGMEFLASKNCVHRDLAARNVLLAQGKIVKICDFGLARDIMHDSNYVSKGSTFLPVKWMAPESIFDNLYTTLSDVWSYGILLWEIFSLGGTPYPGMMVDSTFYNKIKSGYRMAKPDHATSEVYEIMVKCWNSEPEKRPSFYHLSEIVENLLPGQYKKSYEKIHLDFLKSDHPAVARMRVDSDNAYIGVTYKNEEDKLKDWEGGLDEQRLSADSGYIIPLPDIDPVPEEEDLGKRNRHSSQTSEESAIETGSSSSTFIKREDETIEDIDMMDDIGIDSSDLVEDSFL
Assay: HTRF biochemical assay, PDGFRα
Settings: Table 4, read-out: PDFGRα Biochemical IC50 avg
Protocol: as §1, §2, §3, §4

Row | SMILES | IC50 [nM]
14 | Cc1ccc(-c2noc([C@@H]3CCCO3)n2)cc1NC(=O)c1cnc2ccccn12 [Compound I-396] | 500 to 5000
15 | Cc1ccc(-c2noc(C3CC(O)C3)n2)cc1NC(=O)c1cnn2cc(-c3ccn(C)n3)ccc12 (stereo not drawn) [Compound I-652] | 50 to 500
16 | Cc1nc(-c2ccc(F)c(NC(=O)c3cnn4cc(-c5ccn(C)n5)ccc34)c2)no1 [Compound I-657] | 500 to 5000
17 | COCc1ccn2c(C(=O)Nc3cc(-c4noc(C)n4)ccc3F)cnc2c1 [Compound I-658] | 5000 to 30000
18 | Cc1nc(-c2ccc(C)c(NC(=O)c3cnc4cc(OCCCN(C(=O)OC(C)(C)C)C5COC5)ccn34)c2)no1 [Compound I-660] | 500 to 5000
19 | COCc1ccn2c(C(=O)Nc3cc(-c4noc(C(F)(F)F)n4)ccc3C)cnc2c1 [Compound I-664] | 500 to 5000

Target: T1, wtKIT
Assay: Caliper biochemical assay, wtKIT
Settings: Table 6, read-out: KIT Biochemical IC50 avg
How it was run: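 Enzyme (5.0 nM wtKIT), 1 μM FAM-labelled peptide, 400 μM ATP and 10 mM MnCl2 in HEPES pH 7.5 with 1% DMSO, incubated 3 h at 25° C. EDTA quench; substrate and phosphoproduct separated by microfluidic electrophoresis and quantified by fluorescence.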

Row | SMILES | IC50 [nM]
20 | Cc1ccc(-c2noc(C3CC4(C3)CC(F)(F)C4)n2)cc1NC(=O)c1cnc2ccccn12 [Compound I-266] | ≤ 50
21 | Cc1ccc(-c2noc([C@@H]3CCCO3)n2)cc1NC(=O)c1cnc2ccccn12 [Compound I-396] | ≤ 50

Target: T2, CSF-1R
Assay: Caliper biochemical assay, CSF-1R
Settings: Table 6
How it was run: (§5)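 Kinase, FAM-labelled peptide substrate, ATP and Mn^2+ incubated with compound for 3 h at 25° C, then quenched with EDTA buffer. Substrate and phosphorylated product separated by microfluidic electrophoresis and quantified by fluorescence intensity; no-enzyme wells define 100% inhibition.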

Row | SMILES | IC50 [nM]
22 | Cc1ccc(-c2noc(C3CC4(C3)CC(F)(F)C4)n2)cc1NC(=O)c1cnc2ccccn12 [Compound I-266] | ≤ 50
23 | Cc1ccc(-c2noc([C@@H]3CCCO3)n2)cc1NC(=O)c1cnc2ccccn12 [Compound I-396] | 50 to 500

Target: T3, PDGFRα
Assay: Caliper biochemical assay, PDGFRα
Settings: Table 6
How it was run: as §5

Row | SMILES | IC50 [nM]
24 | Cc1ccc(-c2noc(C3CC4(C3)CC(F)(F)C4)n2)cc1NC(=O)c1cnc2ccccn12 [Compound I-266] | 50 to 500
25 | Cc1ccc(-c2noc([C@@H]3CCCO3)n2)cc1NC(=O)c1cnc2ccccn12 [Compound I-396] | 500 to 5000

System: KIT phosphorylation in M-07e cells
Assay: Cell-based KIT phosphorylation in M-07e cells by pKIT ELISA
Parameters: species or system human
Settings: SCF stimulation
Protocol: Exemplary compounds were tested for ability to inhibit KIT phosphorylation using M-07e cells as monitored by pKIT ELISA. M-07e cells are also represented as M-07E, M-07e, M07-e, M07e, Mo7e, MO7e, M07E and MO7E. Assay procedures and results are described below.
Part I—Procedures for Determining KIT Inhibition inM-07e Cells Using pKTT ELISA Reagents and consumables: • M-07e cells: Initially obtained from Accegen, cat #ABC-TC1313 • p-cKIT Capture ELISA antibody: anti-Human Phospho-CD117/c-kit, R&D cat #DYC3527-5 • Anti-pY-HIRP antibody: R&D cat #DYC3527-5 • 25× wash buffer: Quantikine ELISA Wash Buffer 1, R&D cat #WA126 • PBS: R&D cat #DY006 • 96 well ELISA plates: Clear Polystyrene Microplates, R&D Cat #DY990 • 96 well Tissue culture plates: Corning® 96 Well TC-Treated Microplates, cat #CLS3894 • RPMI medium: ATCC® RPMI-1640 Medium, Cat #30-2001 • FBS: Fetal Bovine Serum, certified, United States Gibco, Thermo-Fisher 16000044 • GM-CSF: Recombinant Human GM-CSF Protein, R&D cat #215-GM • SCF: Recombinant Human SCF Protein, R&D cat #255-SC
• 1. Prepare cells: • a. Culture M-07e cells in RPMI medium+20% serum+GM-CSF+penstrep • To make 50 mL of growth medium • i. 40 mL RPMI media • ii. 10 mL FBS • iii. 10 uL of GM-CSF (100 ug/mL stock) • iv. 0.5 mL pen strep (100×) • b. Harvest cells • c. Re-suspend cells in 100% RPMI media (without serum) to final concentration of 1 million cells/mL • d. Transfer 100 uL of cell solution to 11 columns of a 96 well flat bottom cell culture plate • e. Incubate cells over night at 37 C • 2. Prepare ELISA Plates: • a. Dilute capture antibody to concentration 4 ug/mL in PBS • b. Coat 96 well microplates with 100 uL of capture antibody • c. Seal plates and incubate at RT overnight • d. Wash plates with 300 uL of wash buffer • e. Repeat wash • f. Treat plates with 300 uL of blocking buffer at RT for 1 hour • 3. Addition of compounds: • a. Prepare compound dilutions in RPMI media • i. Top test concentration is 1 uM • ii. Serially dilute compounds 3× for a total of 8 concentrations • b. Add 10 uL of 10× compound dilutions to cells • i. No compounds added in column 11 (for controls) • c. Incubate cells with compounds for 2 hours at 37 C • d. Stimulate cells with SCF for 5 min at concentration of 100 ng/mL (final) • i. In column 11 stimulate top 4 wells. Leave bottom 4 wells unstimulated • e. Remove cell culture media with multichannel pipet • f. Add 110 uL of Lysis buffer to all wells • g. Incubate plates at RT for 30 min while shaking • 4. Transfer 100 uL of cell lysis to each prepared Elisa plate • 5. Add 100 uL of the standard pc-KIT dilutions to the standard wells in column 12 • a. Top concentration=2000 pg/mL • b. 2× dilutions • 6. Incubate ELISA plate with cell lysate for 2 hours at RT • 7. Wash Plate with wash buffer (wash 1) • 8. Repeat wash (wash 2) • 9. […] Add 100 uL of diluted anti-pY-HRP (1/1000 dilution in detection antibody dilution buffer) and incubate 2 hours at RT • 11. Wash plate with wash buffer (wash 1) • 12. Repeat wash (wash 2) • 13. Repeat wash (wash 3) • 14. Add 100 uL of substrate solution to each well • 15. Incubate plates 20 min • Note: Plate development is indicated by aqua color • 16. Add 50 uL of stop solution to each well • 17. Determine optical density on Bitek Synergy Neo2: • a. Make new experiment
Select absorbance 1 set to 450 nm

Row | SMILES | IC50 [nM]
26 | Cc1ccc(-c2noc(C3CC4(C3)CC(F)(F)C4)n2)cc1NC(=O)c1cnc2ccccn12 [Compound I-266] | ≤ 50

Target: T4, BCRP (BCRP-MDCKII monolayer) (Homo sapiens, UniProt Q9UNQ0)
T4 construct: host or cells: MDCKII (canine kidney) cells
T4 sequence (Q9UNQ0 1-655): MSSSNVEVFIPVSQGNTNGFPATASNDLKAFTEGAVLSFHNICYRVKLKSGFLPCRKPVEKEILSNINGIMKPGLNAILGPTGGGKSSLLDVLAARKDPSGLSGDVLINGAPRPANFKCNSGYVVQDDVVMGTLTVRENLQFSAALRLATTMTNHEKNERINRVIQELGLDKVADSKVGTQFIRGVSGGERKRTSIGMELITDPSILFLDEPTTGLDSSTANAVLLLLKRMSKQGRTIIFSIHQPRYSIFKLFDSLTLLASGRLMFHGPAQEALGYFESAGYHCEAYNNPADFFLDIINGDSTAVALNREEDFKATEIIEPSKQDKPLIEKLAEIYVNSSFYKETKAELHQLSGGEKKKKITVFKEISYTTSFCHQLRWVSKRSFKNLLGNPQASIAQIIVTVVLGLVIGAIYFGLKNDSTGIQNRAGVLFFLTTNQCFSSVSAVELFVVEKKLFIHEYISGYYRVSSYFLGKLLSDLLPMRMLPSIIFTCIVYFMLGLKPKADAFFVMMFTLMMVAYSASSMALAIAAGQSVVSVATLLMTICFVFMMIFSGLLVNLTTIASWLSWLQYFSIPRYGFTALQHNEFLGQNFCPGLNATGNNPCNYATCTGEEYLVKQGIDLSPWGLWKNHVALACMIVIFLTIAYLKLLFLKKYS
Assay: MDCKII-BCRP bidirectional transport assay
Type: in vitro ADME
Settings: not given
How it was run: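 Bidirectional A→B and B→A transport across PreadyPort BCRP-MDCKII monolayers (days 12–15) was run in duplicate for 120 min at 37° C, 5% CO2 after a 15 min preincubation. Compound levels were measured by LC-MS/MS. Papp and recovery were calculated, with efflux ratio indicating transporter engagement.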

Row | SMILES | MDCK-BCRP: Efflux Ratio
27 | Cc1ccc(-c2noc([C@@H]3CCCO3)n2)cc1NC(=O)c1cnc2ccccn12 [Compound I-396] | 2.86

Same assay, conditions: apical to basolateral

Row | SMILES | MDCK-BCRP: Papp A-B
28 | Cc1ccc(-c2noc([C@@H]3CCCO3)n2)cc1NC(=O)c1cnc2ccccn12 [Compound I-396] | 8.25 10^−6 cm/s

System: not listed separately
Assay: Kinetic solubility assay
Type: physicochemical
Settings: kinetic solubility, 50 mM PB (pH 7.4), shaken 24 hours at RT
How it was run: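 Test compounds from 10 mM DMSO stock were diluted in 50 mM phosphate buffer, pH 7.4, and shaken for 24 h at RT. After PTFE filtration and centrifugation, filtrate concentration was quantified by UPLC-UV/HPLC-UV against a standard curve.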

Row | SMILES | Solubility (μM)
29 | Cc1ccc(-c2noc(C3CC4(C3)CC(F)(F)C4)n2)cc1NC(=O)c1cnc2ccccn12 [Compound I-266] | **** (a solubility less than or equal to 2 μM)
30 | Cc1ccc(-c2noc([C@@H]3CCCO3)n2)cc1NC(=O)c1cnc2ccccn12 [Compound I-396] | **** (a solubility less than or equal to 2 μM)
